We go through eleven compounds from ChEMBL document CHEMBL3352076, “Synthesis of novel triazole-linked mefloquine derivatives: biological evaluation against Plasmodium falciparum” (Bioorg Med Chem Lett, 2014).

This assay concerns Plasmodium falciparum. The assay can be described thus: Antimalarial activity against chloroquine-sensitive Plasmodium falciparum NF54. It is filed as functional, organism-based.
The term IC50 denotes the concentration at which inhibition is half-maximal. A higher IC50 goes with weaker potency. As to `FC(F)(F)c1cc(-n2cc(CNC3C4CC5CC(C4)CC3C5)nn2)c2cccc(C(F)(F)F)c2n1` (stereo unspecified), the IC50 was found to be 1 µM. As for `FC(F)(F)c1cc(-n2cc(CN3CCN(Cc4ccncc4)CC3)nn2)c2cccc(C(F)(F)F)c2n1`, the IC50 amounted to 10.6 µM. This IC50 is about 11-fold higher than that of the compound before. For the compound `FC(F)(F)c1cc(-n2cc(CN3CCN(Cc4c[nH]c5ccccc45)CC3)nn2)c2cccc(C(F)(F)F)c2n1`, the IC50 is 1.3 µM. In the case of `CC(C)(C)NCc1cn(-c2cc(C(F)(F)F)nc3c(C(F)(F)F)cccc23)nn1`, the IC50 was determined as 2.8 µM.

As for `O[C@@H](c1cc(C(F)(F)F)nc2c(C(F)(F)F)cccc12)[C@H]1CCCCN1` [(S,R)-MEFLOQUINE], the 50% inhibitory concentration (IC50) is 20 µM. Regarding `FC(F)(F)c1cc(-n2cc(CN(C3CCCCC3)C3CCCCC3)nn2)c2cccc(C(F)(F)F)c2n1`, the IC50 was determined as 3.26 µM. Under `CC(C)N(Cc1cn(-c2cc(C(F)(F)F)nc3c(C(F)(F)F)cccc23)nn1)C(C)C` stands 4.8 µM; under `FC(F)(F)c1cc(-n2cc(CN3CCN(C4C5CC6CC(C5)CC4C6)CC3)nn2)c2cccc(C(F)(F)F)c2n1` (stereo unspecified), 14.1 µM; under `FC(F)(F)c1cc(-n2cc(CN(Cc3ccccc3)Cc3ccccc3)nn2)c2cccc(C(F)(F)F)c2n1`, 9.1 µM. In turn, `FC(F)(F)c1cc(-n2cc(CN3CCN(C4CCCCC4)CC3)nn2)c2cccc(C(F)(F)F)c2n1` came in with an IC50 of 31.8 µM.

As for `FC(F)(F)c1cc(-n2cc(CN3CCN(Cc4ccccc4)CC3)nn2)c2cccc(C(F)(F)F)c2n1`, the IC50 stood at 25.6 µM.
